Among the data in patent US12459922B2 (Gilead Sciences, Inc., priority 2022, dated 2025) are EC50 values, retold here.

The assay relates to endogenous cellular STAT1 (phosphorylated at Tyr701) in NCI-H1373 cells. Briefly: Phospho-STAT1 (Tyr701) LANCE Ultra TR-FRET Detection Assay. The class given is cell-based. As to conditions: Homo sapiens, NCI-H1373, 48 h, phospho-STAT1 (Tyr701) induction, read-out: NH1373 pSTAT1 EC50.

For the compound `CN(C)C[C@@H](CCCn1ccc2cc(-c3ncc(C(F)(F)F)cn3)c(F)cc2c1=O)Nc1cn[nH]c(=O)c1C(F)(F)F` [Example 473, 2-[(4R)-5-(dimethylamino)-4-[[6-oxo-5-(trifluoromethyl)-1H-pyridazin-4-yl]amino]pentyl]-7-fluoro-6-[5-(trifluoromethyl)pyrimidin-2-yl]isoquinolin-1-one], the EC50 (usually the midpoint of the concentration-response curve) came to 969 nM.
The figure for `Nc1nc(-c2cc3ccn(C[C@@H]4CCC[C@H](Nc5cn[nH]c(=O)c5C(F)(F)F)C4)c(=O)c3cc2F)ncc1Cl` [Example 250, 6-(4-amino-5-chloropyrimidin-2-yl)-7-fluoro-2-(((1R,3S)-3-((6-oxo-5-(trifluoromethyl)-1,6-dihydropyridazin-4-yl)amino)cyclohexyl)methyl)isoquinolin-1(2H)-one] is 4.71 nM; for `O=c1[nH]ncc(N[C@H](CCCn2cnc3cc(-c4cnc(OC(F)F)cn4)c(F)cc3c2=O)COC(F)F)c1C(F)(F)F` [Example 373, (R)-3-(5-(difluoromethoxy)-4-((6-oxo-5-(trifluoromethyl)-1,6-dihydropyridazin-4-yl)amino)pentyl)-7-(5-(difluoromethoxy)pyrazin-2-yl)-6-fluoroquinazolin-4(3H)-one] it is 16.6 nM; for `C[C@@H](CCCn1cnc2cc(-c3cnc(C(F)(F)F)c(N)n3)c(F)cc2c1=O)Nc1cn[nH]c(=O)c1C(F)(F)F` [Example 337, (S)-7-(6-amino-5-(trifluoromethyl)pyrazin-2-yl)-6-fluoro-3-(4-((6-oxo-5-(trifluoromethyl)-1,6-dihydropyridazin-4-yl)amino)pentyl)quinazolin-4(3H)-one] it is 36.6 nM.
On to `N#Cc1cnc(-c2cc3ccn(CCC[C@@H](Nc4cn[nH]c(=O)c4C(F)(F)F)C4CC4)c(=O)c3cc2F)nc1N` [Example 145, 4-amino-2-[2-[(4R)-4-cyclopropyl-4-[[6-oxo-5-(trifluoromethyl)-1H-pyridazin-4-yl]amino]butyl]-7-fluoro-1-oxoisoquinolin-6-yl]pyrimidine-5-carbonitrile], for which the EC50 stood at 14.1 nM.
As to `COc1cnc(-c2cc3ncn(CCC[C@H](C)Nc4cn[nH]c(=O)c4C(F)(F)F)c(=O)c3cc2F)nc1NC1CC1` [Example 220, (S)-7-(4-(cyclopropylamino)-5-methoxypyrimidin-2-yl)-6-fluoro-3-(4-((6-oxo-5-(trifluoromethyl)-1,6-dihydropyridazin-4-yl)amino)pentyl)quinazolin-4(3H)-one], the EC50 is 195 nM.
With `Cc1ccc(-c2cc3ccn(CCC[C@H](COC(F)F)Nc4cn[nH]c(=O)c4C(F)(F)F)c(=O)c3cc2F)nc1N` [Example 412, (R)-6-(6-amino-5-methylpyridin-2-yl)-2-(5-(difluoromethoxy)-4-((6-oxo-5-(trifluoromethyl)-1,6-dihydropyridazin-4-yl)amino)pentyl)-7-fluoroisoquinolin-1(2H)-one], the EC50 was determined as 17.4 nM.
As to `CC[C@@H](CCCn1ccc2cc(-c3ncc(C(F)(F)F)c(N)n3)c(F)cc2c1=O)Nc1cn[nH]c(=O)c1C(F)(F)F` [Example 71, 6-[4-amino-5-(trifluoromethyl)pyrimidin-2-yl]-7-fluoro-2-[(4S)-4-[[6-oxo-5-(trifluoromethyl)-1H-pyridazin-4-yl]amino]hexyl]isoquinolin-1-one], the EC50 came to 5.94 nM.
In the case of `O=c1[nH]ncc(N[C@H]2CCC[C@@H](Cn3ccc4cc(-c5ccc(C(F)(F)F)cn5)c(F)cc4c3=O)C2)c1C(F)(F)F` [Example 268, 7-fluoro-2-(((1R,3S)-3-((6-oxo-5-(trifluoromethyl)-1,6-dihydropyridazin-4-yl)amino)cyclohexyl)methyl)-6-(5-(trifluoromethyl)pyridin-2-yl)isoquinolin-1(2H)-one] it was 13 nM; in that of `COc1cnc(-c2cc3ncn(CCC[C@H](C)Nc4cn[nH]c(=O)c4C(F)(F)F)c(=O)c3cc2F)nc1N` [Example 66, 7-(4-amino-5-methoxy-pyrimidin-2-yl)-6-fluoro-3-[(4S)-4-[[6-oxo-5-(trifluoromethyl)-1H-pyridazin-4-yl]amino]pentyl]quinazolin-4-one], 71.5 nM.
